Measured values taken from patent US9890147B2 (BAYER PHARMA AKTIENGESELLSCHAFT, priority 2012, dated 2018).

Columns and labels:
BRD4 (BD1) = target: T1, BRD4 (BD1) (Homo sapiens, UniProt O60885); experiment: Binding assay BRD4/acetylated peptide H4 (TR-FRET protein-protein interaction assay)
T1 construct: with relatively long constructs also being possible, preferably amino acids 44-168; made in house; host or cells: E. coli
Outline: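 His6-BRD4 BD1 (aa 67-152, E. coli), usually 10 nM, with biotinylated tetra-acetylated H4 peptide in HEPES pH 7.5 buffer; 11 compound concentrations 0.1 nM–20 μM in duplicate, 10 min preincubation, 1 h at 22 °C then ≥3 h at 4 °C. TR-FRET 665/620 ratio; IC50 by 4-parameter fit.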

MOLM-13 cells = experiment: Cell proliferation assay (alamarBlue), MOLM-13; type: cell-based; conditions: Homo sapiens, 96 hours incubation, inhibition of cell proliferation
Outline: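 Cells in RPMI1640/10% FCS read by alamarBlue fluorescence (ex 530, em 590 nm) after overnight 37 °C incubation, then treated at 1E-5 to 1E-8 M for 96 h. Pre-treatment values subtracted from endpoint values and compared with buffer-only wells; IC50 is 50% proliferation inhibition.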

MV4-11 cells = experiment: Cell proliferation assay (alamarBlue), MV4-11; type: cell-based; conditions: Homo sapiens, 72 hours incubation, inhibition of cell proliferation
Description: (§1) In accordance with the invention, the capability of the substances to inhibit cell proliferation was determined Cell viability was determined using the alamarBlue® reagent (Invitrogen) in a Victor X3 Multilabel Reader (Perkin Elmer). The excitation wavelength was 530 nm and the emission wavelenth […].
The MV4-11 cells (ATCC, CRL 9591) were sown at a concentration of 5000 cells/well in 100 μl growth medium (RPMI1640, 10% FCS) on 96-well microtitre plates.
(§2) After an overnight incubation at 37° C., the fluorescence values (CI values) were determined. The plates were then treated with various substance dilutions (1E-5 M, 3E-6 M, 1E-6M, 3E-7 M, 1E-7 M, 3E-8 M, 1E-8 M) and incubated at 37° C. for 72 (MV4-11-, LOX-IMVI cells), 96 (MOLM-13-, B16F10-, MDA-MB-431-, Caov-3 cells), 120 (MOLP-8-, KMS-12-PE cells) or 168 (LAPC-4 cells) hours. The fluorescence values (CO values) were then determined. For the data analysis, the CI values were subtracted from the CO values and the results were compared between cells treated with different dilutions of the substance or with buffer solution only. These were used to calculate the IC 50 values (substance concentration required for 50% inhibition of cell proliferation).

LOX-IMVI cells = experiment: Cell proliferation assay (alamarBlue), LOX-IMVI; type: cell-based; conditions: Homo sapiens, 72 hours incubation, inhibition of cell proliferation
Description: as §1
The LOX-IMVI cells (NCI-60) were sown at a concentration of 1000 cells/well in 100 μl growth medium (RPMI1640, 10% FCS) on 96-well microtitre plates.
as §2

MOLP-8 cells = experiment: Cell proliferation assay (alamarBlue), MOLP-8; type: cell-based; conditions: Homo sapiens, 120 hours incubation, inhibition of cell proliferation
Description: as §1
The MOLP-8 cells (DSMZ, ACC 569) were sown at a concentration of 4000 cells/well in 100 μl growth medium (RPMI1640, 20% FCS) on 96-well microtitre plates.
as §2

KMS-12-PE cells = experiment: Cell proliferation assay (alamarBlue), KMS-12-PE; type: cell-based; conditions: Homo sapiens, 120 hours incubation, inhibition of cell proliferation
Description: as §1
The KMS-12-PE cells (DSMZ, ACC 606) were sown at a concentration of 4000 cells/well in 100 μl growth medium (RPMI1640, 20% FCS) on 96-well microtitre plates.
as §2

Caov-3 cells = experiment: Cell proliferation assay (alamarBlue), Caov-3; type: cell-based; conditions: Homo sapiens; inhibition of cell proliferation, Caov-3 (ovarian carcinoma), 96 hours
Description: as §1
The MDA-MB-231 cells (DSMZ, ACC 732) were sown at a concentration of 4000 cells/well in 100 μl growth medium (DMEM/Ham's F12 medium, 10% FCS) on 96-well microtitre plates. The Caov-3 cells (ATCC, HTB-75) were sown at a concentration of 2000 cells/well in 100 μl growth medium (MEM Earle's medium, 10% FCS) on 96-well microtitre plates.
as §2

Row | SMILES | IC50 (BRD4 (BD1)) [nM] | IC50 (MOLM-13 cells) [nM] | IC50 (MV4-11 cells) [nM] | IC50 (LOX-IMVI cells) [nM] | IC50 (MOLP-8 cells) [nM] | IC50 (KMS-12-PE cells) [nM] | IC50 (Caov-3 cells) [nM]
1 | CNC(=O)N1N=C(c2ccc(-c3cn(C)nn3)cc2)c2cc(OC)c(OC)cc2CC1C (racemic) [Example 45, (±)-7,8-dimethoxy-N,4-dimethyl-1-[4-(1-methyl-1H-1,2,3-triazol-4-yl)phenyl]-4,5-dihydro-3H-2,3-benzodiazepine-3-carboxamide] | 40 | 230 | 140 | 350 | 130 | 130 | 240
2 | CNC(=O)N1N=C(c2ccc(-c3sc(C)nc3C)cc2)c2cc(OC)c(OC)cc2CC1C (racemic) [Example 46, (±)-1-[4-(2,4-dimethylthiazol-5-yl)phenyl]-7,8-dimethoxy-N,4-dimethyl-4,5-dihydro-3H-2,3-benzodiazepine-3-carboxamide] | 30 | 190 | 110 | 370 | 160 | 120 | 280
3 | CNC(=O)N1N=C(c2ccc(-c3cccnc3C(F)(F)F)cc2)c2cc(OC)c(OC)cc2CC1C (racemic) [Example 48, (±)-7,8-dimethoxy-N,4-dimethyl-1-{4-[2-(trifluoromethyl)pyridin-3-yl]phenyl}-4,5-dihydro-3H-2,3-benzodiazepine-3-carboxamide] | 110 | 190 | 220 | 650 | 250 | 260 | 470
4 | CNC(=O)N1N=C(c2ccc(-c3c(C)nn(C)c3C)cc2)c2cc(OC)c(OC)cc2CC1C (racemic) [Example 51, (±)-7,8-dimethoxy-N,4-dimethyl-1-[4-(1,3,5-trimethyl-1H-pyrazol-4-yl)phenyl]-4,5-dihydro-3H-2,3-benzodiazepine-3-carboxamide] | 30 | 210 | 120 | 350 | 120 | 90 | 280
5 | CNC(=O)N1N=C(c2ccc(-c3cnoc3)cc2)c2cc(OC)c(OC)cc2CC1C (racemic) [Example 52, (±)-1-[4-(isoxazol-4-yl)phenyl]-7,8-dimethoxy-N-dimethyl-4,5-dihydro-3H-2,3-benzodiazepine-3-carboxamide] | 50 | 240 | 140 | 450 | 150 | 130 | 350
6 | CNC(=O)N1N=C(c2ccc(-c3cccc(NS(C)(=O)=O)c3)cc2)c2cc(OC)c(OC)cc2CC1C (racemic) [Example 71, (±)-7,8-dimethoxy-N,4-dimethyl-1-{3′-[(methylsulphonyl)amino]biphenyl-4-yl}-4,5-dihydro-3H-2,3-benzodiazepine-3-carboxamide] | 40 | 250 | 50 | 150 | 90 | 80 | 150
7 | CNC(=O)N1N=C(c2ccc(-c3cccc(C(=O)N4CCCC4)c3)cc2)c2cc(OC)c(OC)cc2CC1C (racemic) [Example 96, (±)-7,8-dimethoxy-N,4-dimethyl-1-[3′-(pyrrolidin-1-ylcarbonyl)biphenyl-4-yl]-4,5-dihydro-3H-2,3-benzodiazepine-3-carboxamide] | 40 | 250 | 70 | 220 | 90 | 70 | 170
8 | CNC(=O)N1N=C(c2ccc(N3CCN(C)CC3)cc2)c2cc(OC)c(OC)cc2CC1C (racemic) [Example 127, (±)-7,8-dimethoxy-N,4-dimethyl-1-[4-(4-methylpiperazin-1-yl)phenyl]-4,5-dihydro-3H-2,3-benzodiazepine-3-carboxamide] | 80 | 180 | 120 | 250 | 90 | 90 | 240
9 | CNC(=O)N1N=C(c2ccc(N3CCC3)cc2)c2cc(OC)c(OC)cc2CC1C (racemic) [Example 128, (±)-1-[4-(azetidin-1-yl)phenyl]-7,8-dimethoxy-N,4-dimethyl-4,5-dihydro-3H-2,3-benzodiazepine-3-carboxamide] | 30 | 230 | – | 390 | 100 | 100 | 320
10 | CNC(=O)N1N=C(c2ccc(N3CC(F)C3)cc2)c2cc(OC)c(OC)cc2CC1C (racemic) [Example 129, (±)-1-[4-(3-fluoroazetidin-1-yl)phenyl]-7,8-dimethoxy-N,4-dimethyl-4,5-dihydro-3H-2,3-benzodiazepine-3-carboxamide] | 50 | 220 | 180 | 580 | 150 | 120 | 420
11 | CNC(=O)N1N=C(c2ccc(N3CCNCC3)cc2)c2cc(OC)c(OC)cc2CC1C (racemic) [Example 131, (±)-7,8-dimethoxy-N,4-dimethyl-1-[4-(piperazin-1-yl)phenyl]-4,5-dihydro-3H-2,3-benzodiazepine-3-carboxamide] | 50 | 110 | 40 | 70 | 30 | 30 | 50
12 | CNC(=O)N1N=C(c2ccc(N3CCN(C(C)=O)CC3)cc2)c2cc(OC)c(OC)cc2CC1C (racemic) [Example 132, (±)-1-[4-(4-acetylpiperazin-1-yl)phenyl]-7,8-dimethoxy-N,4-dimethyl-4,5-dihydro-3H-2,3-benzodiazepine-3-carboxamide] | 30 | 200 | 130 | 420 | 120 | 110 | 320
13 | CNC(=O)N1N=C(c2ccc(-c3c(C)noc3C)cc2)c2cc(O)ccc2CC1C (racemic) [Example 168, (±)-1-[4-(3,5-Dimethylisoxazol-4-yl)phenyl]-8-hydroxy-N,4-dimethyl-4,5-dihydro-3H-2,3-benzodiazepine-3-carboxamide] | 110 | 390 | 220 | – | – | – | –
14 | CNC(=O)N1N=C(c2ccc(-c3c(C)noc3C)cc2)c2cc(OCCCN3CCOCC3)ccc2CC1C (racemic) [Example 169, (±)-1-[4-(3,5-Dimethylisoxazol-4-yl)phenyl]-N,4-dimethyl-8-[3-(morpholin-4-yl)propoxy]-4,5-dihydro-3H-2,3-benzodiazepine-3-carboxamide] | 30 | 240 | – | 410 | 120 | 120 | 370
15 | CNC(=O)N1N=C(c2ccc(N3CCOCC3)cc2)c2cc(OC)c(OC)cc2C[C@@H]1C [Example 7.2, (4S)-7,8-dimethoxy-N,4-dimethyl-1-[4-(morpholin-4-yl)phenyl]-4,5-dihydro-3H-2,3-benzodiazepine-3-carboxamide] | 30 | 100 | 60 | 190 | 50 | 50 | –
16 | CNC(=O)N1N=C(c2ccc(N3CC(F)C3)cc2)c2cc(OC)c(OC)cc2C[C@@H]1C [Example 129.2, (4S)-1-[4-(3-fluoroazetidin-1-yl)phenyl]-7,8-dimethoxy-N,4-dimethyl-4,5-dihydro-3H-2,3-benzodiazepine-3-carboxamide] | 20 | 150 | – | – | 80 | – | –
